# Several values for one entry are separate records, joined by “and”; a condition that tells them apart may be missing. Identical values can stand only once. Entries after “also recorded” stand apart in the source; their conditions may differ. Like-named read-outs stand apart in the source and are kept apart here.
# Key:
# DPPH· scavenging assay = assay type: biochemical
# [1] = test system: fluorescent AGEs (BSA-fructose/glucose system); assay: Fluorescent AGEs formation in a BSA-fructose/glucose system; assay type: biochemical, bovine; conditions: read-out: IC50, AGE formation
# Experimental: The formation of total fluorescent AGEs in glycated samples was assessed by determining their fluorescent intensities at an excitation/emission wavelength of 350/450 nm, as previously described. Glycated protein was prepared in vitro by incubating BSA in the presence of D-glucose (GLC) and D-fructose (FRC). The DOF extract and specific standards were dissolved in DMSO:water (1:4). BSA (4 mg/ml, 100 μl) was preliminary mixed with 50 μl of GLC (0.5 M) and 50 μl of FRC (0.5 M) in 20 mM sodium phosphate buffer (pH 7.4), and then 100 μl samples were added in the 96-well plate and incubated at 37.5° C. for 7 days. All solutions were prepared under sterile conditions and filtered using a 0.22-μm syringe before incubation. The assay was performed in triplicate, and AG was used as a positive control.
# [2] = Online UPLC-PDA-MS-ABTS·+ scavenging (post-column derivatisation); assay type: biochemical; conditions: online profiling of DOF extract
# Experimental: Online identification of antioxidant components of DOF extract was performed using a UPLC system (Milford, MA, USA) consisting of a Waters photodiode array detector and a Waters postcolumn derivatisation system supplying fresh ABTS solution (UPLC-PDA-QDa-ABTS). […] The detection wavelengths were set at 280 and 734 nm, and the injection volume of the sample was 10 μl.
# To detect radical scavengers, the UPLC system was coupled with a Waters pump, which supplied freshly prepared ABTS·+ solution into a reaction coil (15 m, 0.25 mm ID) with a flow rate of 0.2 ml/min at 37° C. Negative peaks were recorded based on a decrease of absorbance at 729 nm after the reaction of individual compounds with the ABTS·+ radical. For preliminary identification of compounds, a Waters Acquity QDa mass detector in negative ionisation mode was connected in series to PDA with the following parameters: electrospray ion source; cone voltage, 15 V; atomiser, N2; and scanning range, 100-800 m/z.
# [3] = FRAP total antioxidant capacity assay; assay type: biochemical
# Experimental: Fast colourimetric methods were slightly modified for the in vitro assessment of DPPH· scavenging, ABTS·+ decolourisation capacity, and total antioxidant capacity of FRAP. The stock solutions of derivatisation reagents were diluted as follows before measurement: DPPH was diluted with absolute ethanol until the absorbance was 0.8±0.05 at λ=517 nm. ABTS working solution was prepared with phosphate buffer (0.2 M, pH 7.4) to display absorbance of 0.8±0.05 at λ=729 nm, based on a previous study. The FRAP solution was prepared according to the instructions of the FRAP kit. Absorbances were measured using an automatic microplate reader (Molecular Group Ltd., USA), and all analyses were performed using 96-well plates. All measurements were performed in triplicate, and Trolox was used as a positive control.
# For total antioxidant capacity, 180 μl of FRAP solution was mixed with 5 μl of sample solution, and the absorbance was measured after 5 min at […] with PBS as the negative control. FeSO4 solutions (0.15, 0.3, 0.6, 0.9, 1.2, and 1.5 mM) were used for the calibration curve. The FRAP value represents the corresponding concentration of FeSO4 solutions (mM FeSO4). The regression equation from the standard curve was used to calculate the equivalent concentration 1 (EC1) of each sample. EC1 is defined as the concentration of the test sample with an absorbance equivalent to that of 1.0 mmol/L of FeSO4 solution, determined by its calibration curve.
# [4] = test system: fluorescent AGEs (human serum albumin glycated with D-fructose and glucose); assay: Non-enzymatic glycation of HSA, determination of fluorescent AGEs; assay type: biochemical; conditions: for The inhibition rate of fluorescent AGE 360/453 nm (%): single replicate
# Experimental: The anti-glycative ability of samples were assessed by measuring the amounts of fluorescent AGEs. 100 μL human serum albumin (4 mg/ml HSA) was glycated with 100 μL D-fructose (0.05 mol/L) and 100 μL glucose (0.05 mol/L) in the presence of samples in potassium phosphate buffer (0.2 mol/L, pH7.4, 0.06% NaN3) and incubated at 50° C. for […]. The incubated solutions were then used for the following assays. Rutin was the positive control.
# The fluorescence intensity of the incubated solutions under the λex/λem=360/453 nm was recorded on microplate reader. The inhibition rate of fluorescent AGEs was calculated by the following equation: […]
# where A1 is the fluorescence intensity of glycation system without samples; A2 is the fluorescence intensity of glycation system without HSA and samples; A3 is the fluorescence intensity of glycation system with HSA, sugar and samples; and A4 is the fluorescence intensity of glycation system without HSA.
# COX-2 = biological target: T1, COX-2 (Homo sapiens, UniProt P35354); assay: Anti-COX-2 assay (COX-2 Inhibitor Screening Kit); assay type: biochemical
# T1 construct: purchased Beyotime S0168
# T1 sequence (P35354 18-604): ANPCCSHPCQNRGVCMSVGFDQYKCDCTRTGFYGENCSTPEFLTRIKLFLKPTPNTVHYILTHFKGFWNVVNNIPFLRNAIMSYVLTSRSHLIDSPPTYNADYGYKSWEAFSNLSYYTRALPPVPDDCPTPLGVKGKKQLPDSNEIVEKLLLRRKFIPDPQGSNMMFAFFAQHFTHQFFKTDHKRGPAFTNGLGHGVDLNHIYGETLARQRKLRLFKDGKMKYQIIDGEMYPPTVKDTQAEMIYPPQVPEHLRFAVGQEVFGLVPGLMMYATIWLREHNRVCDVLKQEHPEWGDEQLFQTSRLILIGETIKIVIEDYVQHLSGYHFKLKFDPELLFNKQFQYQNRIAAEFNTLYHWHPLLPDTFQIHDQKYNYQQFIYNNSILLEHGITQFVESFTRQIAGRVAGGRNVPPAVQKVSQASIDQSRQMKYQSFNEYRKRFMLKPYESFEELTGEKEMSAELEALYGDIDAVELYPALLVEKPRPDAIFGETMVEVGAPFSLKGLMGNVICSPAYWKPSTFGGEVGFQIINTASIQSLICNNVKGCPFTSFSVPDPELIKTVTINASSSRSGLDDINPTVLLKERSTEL
# Experimental: Anti-inflammatory activity was assessed by measuring COX-2 enzymatic inhibition on the basis of a described method by using the COX-2 Inhibitor Screening Kit (Beyotime, No. S0168). Celecoxib, a COX-2 inhibitor, was used as a positive control.
# type I collagen [5] = assay: Collagen type I in HDFs by immunofluorescence; assay type: cell-based, human; conditions: positive drug, VC 200 μg/ml, 48 h, IF
# Experimental: (§1) HDFs were cultured in DMEM with 10% (v/v) FBS and 1% PS at 37° C. in a humidified 5% CO2 incubator. Cells were subcultured using pancreatin solution after reaching confluence. All experiments were performed between the third and eighth passages.
# (§2) The synthesis of collagen types I and III was detected using IF and ELISA. HDFs were digested and seeded in a 24-well culture plate on slides at a density of 50,000 cells/well in a complete medium. After reaching 80% confluency, cells were starved with the medium in the absence of serum for 16 h. Cells were then treated with positive controls or active samples (prepared in medium without serum) for an additional 48 h. For analysis and visualisation of types I and III collagens, the supernatants and remaining cell slides were both collected and analysed using ELISA kits and the IF staining method, respectively.
# (§3) Collected supernatants were centrifuged at 10,000 rpm for 10 min and used for types I and III collagen ELISA, according to the manufacturer's protocol. The remaining cell slides were washed once with PBS and fixed in polyformaldehyde overnight at 4° C. Subsequently, the slides were treated with 0.5% Triton-X100 for 5 min. After washing, cells were blocked with 1% BSA at room temperature for 1 h. […] ImageJ software was used to quantify collagen expression from different images randomly selected in each group.
# type I collagen [6] = assay: Extracellular collagen type I of HDFs by ELISA; assay type: cell-based, human; conditions: VC, 48 h, culture medium
# Experimental: as §1, §2, §3
# type III collagen = assay: Collagen type III in HDFs by immunofluorescence; assay type: cell-based, human; conditions: positive drug, VC 200 μg/ml, 48 h, IF
# Experimental: as §1, §2, §3
smiles,measurement,setting,value
"C[C@@H]1O[C@@H](OC[C@H]2O[C@@H](Oc3c(-c4ccc(O)c(O)c4)oc4cc(O)cc(O)c4c3=O)[C@H](O)[C@@H](O)[C@@H]2O)[C@H](O)[C@H](O)[C@H]1O [Compound 24, Rutin]",antioxidant ability by DPPH (in words),DPPH· scavenging assay,great antioxidant potency
same,antioxidant ability by DPPH (in words),DPPH· scavenging assay; listed as rutin,selective and significant antioxidant abilities
same,IC50,[1],222 ± 13.5 µM
same,ABTS radical scavenging by size of negative peaks at 734 nm (in words),[2],strongest ABTS radical scavengers
same,antioxidant ability by FRAP (in words),[3],great antioxidant potency
same,FRAP EC1,"[3]; Table 11, mean ± SD, n = 3",205 µM
same,antioxidant ability by FRAP (in words),[3]; listed as rutin,selective and significant antioxidant abilities
same,Average % inhibition,[4]; 3.125 μg/ml,2.02%
same,The inhibition rate of fluorescent AGE 360/453 nm (%),[4]; 3.125 μg/ml,2.34% and −3.34% and 7.07%
same,Average % inhibition,[4]; 6.25 μg/ml,22.00%
same,The inhibition rate of fluorescent AGE 360/453 nm (%),[4]; 6.25 μg/ml,18.13% and 25.69% and 22.17%
same,Average % inhibition,[4]; 12.5 μg/ml,41.15%
same,The inhibition rate of fluorescent AGE 360/453 nm (%),[4]; 12.5 μg/ml,35.84% and 42.05% and 45.57%
same,Average % inhibition,[4]; 25 μg/ml,61.91%
same,The inhibition rate of fluorescent AGE 360/453 nm (%),[4]; 25 μg/ml,55.85% and 64.92% and 64.97%
same,Average % inhibition,[4]; 50 μg/ml,75.80%
same,The inhibition rate of fluorescent AGE 360/453 nm (%),[4]; 50 μg/ml,74.72% and 79.59% and 73.08%
same,Average % inhibition,[4]; 100 μg/ml,81.90%
same,The inhibition rate of fluorescent AGE 360/453 nm (%),[4]; 100 μg/ml,81.88% and 81.51% and 82.32%
same,Average % inhibition,[4]; 200 μg/ml,85.69%
same,The inhibition rate of fluorescent AGE 360/453 nm (%),[4]; 200 μg/ml,84.54% and 85.94% and 86.58%
same,Average % inhibition,[4]; 400 μg/ml,91.19%
same,The inhibition rate of fluorescent AGE 360/453 nm (%),[4]; 400 μg/ml,90.91% and 91.13% and 91.53%
same,COX-2 inhibition (in words),COX-2,great COX-2 inhibition; also recorded: outstanding COX-2 inhibitory effects
same,COX-2 inhibition (in words),COX-2; listed as rutin,potent COX-2 inhibitory capacity
O=C1O[C@H]([C@@H](O)CO)C(O)=C1O [vitamin C],"Collagen type I expression, % of control",type I collagen [5],190.20 % of control
same,increase of secreted collagen type I levels,type I collagen [6],21.94%
same,"Collagen type III expression, % of control",type III collagen,125.90 % of control

# Reference: patent publication US20260232750A1, “COMPOSITION AND METHOD FOR INHIBITING ADVANCED GLYCATION END PRODUCTS” (ACCESS BUSINESS GROUP INTERNATIONAL LLC, priority 2022, published 2026)
